Experimental data from US20260138981A1, “DIHYDROFOLATE REDUCTASE INHIBITORS FOR ANTI-BIOTIC RESISTANT INFECTIONS” (THE TRUSTEES OF PRINCETON UNIVERSITY, priority 2022, published 2026).
Values after ≈ are worked out from the molar mass of the structure shown.

Columns and labels:
P. aeruginosa PA14 [1] = test: Murine thigh infection model of PA14; format: in vivo, mouse; details: 24 hours
Procedure: FIG. 2C quantifies treatment of mice with fluorofolin (SC) with or without SMX 100 mg/kg (IP).
FIG. 2D characterizes Fluorofolin and SMX treatment of mice fed a diet of thymidine-supplemented chow during PA14 infection. Mice were treated 1 and 12 hours post infection (n=5 for each group). P values from Tukey's multiple comparisons test (P-values≤0.0001).
To investigate the ability of fluorofolin to clear a P. aeruginosa infection in vivo, a murine thigh infection model of PA14 was employed. The maximum tolerated dose of fluorofolin was determined to be 25 mg/kg administered subcutaneously (SC). […] We note that this dose of SMX was previously used to mimic clinically-relevant levels of SMX used for cotreatment with TMP in humans. Mice were inoculated with 5.33 log CFU of P. aeruginosa PA14 CFU of PA14 and treated SC with fluorofolin at 25 mg/kg at 1 and 12 hours post infection. Thighs were harvested 24 hours post infection to determine bacterial load.
It was also sought to support the feasibility of thymidine supplementation in vivo by testing the hypothesis that fluorofolin should remain active in the presence of thymidine supplementation. […]
Female 5-6-week-old CD-1 mice were made neutropenic through intraperitoneal (IP) cyclophosphamide treatment (Cytoxan) prior to this study. […] In vivo efficacy was evaluated by the University of North Texas Health Science Center (Fort Worth, Texas).

P. aeruginosa PA14 [2] = test: Checkerboard assay of fluorofolin and sulfamethoxazole; format: cell-based
Procedure: FIG. 2B is a Checkerboard assay of fluorofolin and sulfamethoxazole. Z-values represent fractional inhibitory concentrations (FICs). FICs were determined by dividing the MIC of each drug when used in combination by the MIC when used alone. FIC of less than or equal to 0.5 is considered a synergistic effect.
Cells were seeded in a similar manner as described above for MIC calculations. Sulfamethoxazole (Chem-Impex 00821) was diluted 1:2 down the rows of the plate, while fluorofolin was diluted 1:2 down the column of the plate. Fractional inhibitory concentrations (FICs) were calculated as [fluorofolin]/MICFluorofolin+[SMX]/MICSMX where [fluorofolin] and [SMX] are the concentrations of compounds in given well, which are dividing by the concentration of drug at the MIC for each compound. FIC values less than or equal to 0.5 are considered synergistic.

[3] = test system: co-cultures of E. coli MG1655 and P. aeruginosa PA14; test: Growth competition assay (co-culture); format: cell-based; details: 50 μg/mL fluorofolin, 1:1 inoculum, overnight, CFU
Procedure: FIG. 3C characterizes competition of P. aeruginosa PA14 and E. coli MG1655 in LB or TMI-supplemented LB media. PA14 and E. coli MG1655 were inoculated at a 1:1 ratio and grown overnight in the presence or absence of 50 μg/mL fluorofolin in each media condition. The following day CFU were counted on LB-agar or Pseudomonas selection agar plates to determine CFU/mL of each species. Data represent mean±SD of triplicate biological and triplicate technical replicates. P values were calculated using unpaired t-test using Prism 9 (P value≤0.001)
Overnight cultures of P. aeruginosa PA14 or E. coli MG1655 were diluted 1:150 into LB Broth in the presence of DMSO or 50 μg/mL fluorofolin with or without TMI supplementation and grown for 16 hours at 37° C. Cultures of each species were grown separately as well as being mixed 1:1. Cultures were plated onto LB Agar or Pseudomonas Selection Agar (Sigma-Aldrich 17208) and CFU counting was carried out as described above. To control for appropriate, Pseudomonas selection, E. coli MG1655 was plated onto Pseudomonas Selection Agar and an absence of colonies was observed. The number of colonies on Pseudomonas Selection Agar plates was reported as the CFU/mL of P. aeruginosa. To calculate CFU/mL of E. coli MG1655, CFU/mL were determined from LB Agar plates, and the CFU/mL of P. aeruginosa were subtracted from these values.

PBMC = format: cell-based; details: 72 h
Procedure: FIG. 5D provides IC50 of fluorofolin against in vitro mammalian cell lines relative to the IC50 of IRS-16. HLF: human lung fibroblast, HK-2: human kidney epithelial, PBMC: peripheral blood mononuclear cell, WI-38: Embryonic lung tissue.
After 24 hours, DMSO or compounds were added in 3-fold dilutions and incubated for 72 hours. For PBMC, CellTiter-Glo Reagent was added in equal volume and incubated for 30 min after which luminescence was read. For other cell types, CyQUANT Detection Reagent was added in equal volume and incubated for 1 hour after which fluorescence was read with standard green filter set (508/527 nm ex). Cell toxicity was evaluated by Pharmaron, Inc. (Beijing, […]).

E. faecalis ATCC 51575 = test: MIC, WuXi, Mueller-Hinton Broth; format: cell-based; details: Enterococcus faecalis, ATCC51575, performed by WuXi in Mueller-Hinton Broth
Procedure: For MICs calculations performed by WuXi (Shanghai, China), MIC was calculated as the lowest concentration that inhibits visible growth after 18 hours. 4-8 bacterial colonies of strains of interest were vortexed in saline and adjusted to an OD600 of 0.2. Strains were diluted 1:200 into CAMHB media into 96-well plates. Antibiotics were serially diluted 1:3 in DMSO, and 1 μL of each dilution was added to bacteria. The plates were incubated for 18-20 hours at 37° C. before observation.

[4] = Maximum tolerated dose (MTD); format: in vivo, mouse; details: administered subcutaneously (SC), CD-1 mice
Procedure: P. aeruginosa thigh infection model and MTD studies: Care and handling of Female 5-6-week-old CD-1 conformed to institutional animal care and use policies as carried out at University of North Texas Health Science Center (Fort Worth, Texas). Rodents were fed either base chow or base diet supplemented with 1.8 g/kg thymidine (Sigma T9250) obtained from Envigo starting two days before infection.
MTD was determined through administration of compounds at increasing dosage until the maximum dose before adverse reactions were observed. Doses were increased in a stepwise manner from 1 mg/kg to 5, 10, 25, 50 mg/kg. […] MTD was evaluated by the University of North Texas Health Science Center (Fort Worth, Texas).

Nc1nc(N)c2c(ccc3c2ccn3Cc2ccnc(F)c2)n1 [fluorofolin]
growth of PA14 in thigh (bacterial load) (P. aeruginosa PA14 [1]; fluorofolin 25 mg/kg SC + SMX 100 mg/kg IP at 1 and 12 hours post infection, vs no treatment and SMX alone, P<0.0001): significantly inhibited the growth of PA14 | P. aeruginosa load in thigh, thymidine-supplemented diet (P. aeruginosa PA14 [1]; fluorofolin and SMX, mice fed thymidine-supplemented chow, vs untreated mice): significant reduction | MIC (P. aeruginosa PA14 [2]; Pseudomonas aeruginosa, PA14, SMX 156 μg/mL, read-out: MIC of fluorofolin in the presence of SMX): 0.4 µg/mL | synergy (FIC, checkerboard) (P. aeruginosa PA14 [2]; combination of fluorofolin and sulfamethoxazole (SMX), PA14): significant synergy | effect on co-culture, absence of TMI supplementation ([3]; LB): effectively killed both E. coli and P. aeruginosa | effect on co-culture, presence of TMI supplementation ([3]; TMI-supplemented LB): selectively inhibited the growth of P. aeruginosa but not E. coli | increase in IC50 compared to IRS-16 (PBMC): 9.6 fold | MIC (E. faecalis ATCC 51575): 0.01 µg/mL (≈ 0.0324 µM) | maximum tolerated dose [4]: 25 mg/kg
